Patent US6136808A, “Taxane derivatives” (Kabushiki Kaisha Yakult Honsha, priority 1997, dated 2000)
≈ marks a conversion by molar mass, not a printed value. Read-outs that look alike come from different tables or passages of the source.

Tests used:
KB cells = assay: Cancer cell proliferation activities, growth inhibition of KB cells (XTT assay); type: cell-based; settings: Homo sapiens, 72 h
Protocol: Cancer Cell Proliferation Activities
As KB cells derived from a human mouth cancer, those purchased from Dainippon Pharmaceutical Co., Ltd. and stored in a lyophilized from at the Research Institute of that company was used. In Dulbecco's modified Eargle's medium containing 10% fetal bovine serum (product of NISSUI PHARMACEUTICAL CO., LTD.), the KB cells were cultured and maintained under the conditions of 5%, CO2 -air and 37° C.
Each compound was used by dissolving it at a concentration of 10 mg/ml in DMSO.
On Day-1, cells which were in a logarithmic growth phase were inoculated at 2,000 cells/100 μl/well on 96-well microtiter plates (Falcon #3072) by using a phenol-red-free culture medium with 10% fetal bovine serum contained therein (Dulbecco's modified Eargle's medium (Sigma)), and were cultured overnight. On Day 0, the compounds each of which had been diluted to 0.03 to 10,000 ng/ml with the same culture medium were added in 100 μl aliquots to the individual wells, and the cells were cultured for 3 days. Three wells were used per each drug concentration. Each plate was provided with three blank wells containing only the culture medium and also with eight wells as a drug-untreated control.
Upon use, XTT (Sigma) was dissolved at a concentration of 1 mg/ml in each culture medium which was free of serum. Phenodin methosulfate (Sigma) dissolved at a concentration of 5 mM in PBS was added to the resulting solution at a volume ratio of 1/200. To each well, the solution so prepared was added in an amount of 50 μl per well. Subsequent to culture for 4 hours, OD was measured at 450 nm by ELISA.
Calculation of 50% Growth Inhibitory Concentration (GI50)
GI50 was calculated by interpolation from a concentration-growth inhibition rate (GIR). GIR was determined in accordance with the following formula: [formula]

[1] = Solubility test in water of taxane derivatives (HPLC); settings: for Dissolved amount (Y): purified water + 0.1N hydrochloric acid (1.05 eq.), room temperature, 2 hours, HPLC; for solubility: water; for solubility at 2 h: water + 0.1n hcl
Protocol: I) Measurement of the solubility of the compound (b)
1) Preparation of a calibration curve
(§1) The compound (b) was weighed in an amount of 1.19 mg, to which 1.19 ml of acetonitrile was added so that the compound was dissolved to provide a standard solution. Using a 10 μl portion of the standard solution, the test was conducted by HPLC (operation conditions 1). […] The peak area obtained as an average of three measurements was plotted against the amount (10.0 μg) of the compound (b) per 10 μl, whereby a calibration curve was prepared.
Calibration curve: Y=2.08×10^-5 X [X: peak area, Y: amount (μg) of the compound (b)]
[HPLC operation conditions 1]
Column: Inertsil ODS-2 (5-250), 40 deg.
Mobile phase: 0.01M KH2 PO4 --CH3 CN (3:2)
Detection: Ultraviolet absorption photometer (225 nm), 0.2 aufs.
2) Solubility test of the compound (b)
(§2) The compound (b) was weighed in an amount of 4.0 mg and then suspended in 2.0 ml of purified water. To the resulting suspension, 45 μl (1.05 eq.) of 0.1N hydrochloric acid was added. By ultrasonication, the resulting mixture was formed into a uniform suspension, which was then shaken at room temperature for 2 hours. The thus-obtained mixture was filtered through a membrane filter (0.22 μm), and the filtrate was provided as a test solution. Using the resulting test solution, the test was conducted by HPLC (operation conditions 1). From the area obtained as an average of three measurements, the solubility of the compound (b) was determined.
II) Measurement of the solubility of the compound (j)
as §1, with “(j)” for “(b)”, “0.94” for “1.19”, “The” for “The peak”
Calibration curve: Y=2.02×10^-5 X [X: peak area, Y: amount (μg) of the compound (j)]
2) Solubility test of the compound (j)
as §2, with “(j)” for “(b)”, “4.24” for “4.0”, “46” for “45”

[2] = tested on: ovarian cancer and breast cancer; settings: Ann. int. Med. 111, 273, 1989; cited from earlier work
[3] = background statement on Taxol; cited from earlier work

SMILES | GI50 (KB cells; KB cells, 3 days, XTT, read-out: GI50) | Dissolved amount (Y) [1] | solubility [1] | solubility at 2 h [1] | efficacy against ovarian cancer and breast cancer [2] | solubility in water (in words) [3] | GI50 (KB cells; KB)
CC(=O)OC12COC1CC(O)C1(C)C(=O)C(OC(=O)N3CCN(C)CC3)C3=C(C)C(OC(=O)C(O)C(NC(=O)c4ccco4)c4ccccc4)CC(O)(C(OC(=O)c4ccccc4)C21)C3(C)C (stereo not drawn) [Compound b, 13-O-[3-(2-Furoylamino)-2-hydroxy-3-phenylpropionyl]-10-O-(4-methylpiperazinocarbonyl)-10-deacetylbaccatin III] | 1.4 ng/mL (≈ 0.00151 µM) | 9.98 μg/5 μl | 2000 µg/mL (≈ 2160 µM) | 2000 µg/mL |  |  | 
CC(=O)O[C@H]1C(=O)[C@@]2(C)[C@H]([C@H](OC(=O)c3ccccc3)[C@]3(O)C[C@H](OC(=O)[C@H](O)[C@@H](NC(=O)c4ccccc4)c4ccccc4)C(C)=C1C3(C)C)[C@]1(OC(C)=O)CO[C@@H]1C[C@@H]2O [Taxol, reference compound] |  |  | 0.4 µg/mL (≈ 0.468 µM) |  | high efficacy against ovarian cancer and breast cancer | sparingly soluble in water | 1.3 ng/mL (≈ 0.00152 µM)
CCN1CCN(C(=O)OC2C(=O)C3(C)C(O)CC4OCC4(OC(C)=O)C3C(OC(=O)c3ccccc3)C3(O)CC(OC(=O)C(O)C(NC(=O)OC4CCCC4)c4ccccc4)C(C)=C2C3(C)C)CC1 (stereo not drawn) [Compound j, 13-O-(3-Cyclopentyloxycarbonylamino-2-hydroxy-3-phenylpropionyl)-10-O-(4-ethylpiperazinocarbonyl)-10-deacetylbaccatin III] |  | 9.20 μg/5 μl | 1840 µg/mL (≈ 1920 µM) | 1840 µg/mL |  |  | 0.58 ng/mL (≈ 0.000604 µM)
